Assay results reported in article PMC8745486, “Removal of Persistent Sulfamethoxazole and Carbamazepine from Water by Horseradish Peroxidase Encapsulated into Poly(Vinyl Chloride) Electrospun Fibers” (International Journal of Molecular Sciences, 2021).
Counter-ions that a name gives are not always drawn.

Tested on: T1, horseradish peroxidase (HRP)
T1 construct: gene PRXC1A
Details: read-out: Free HRP; free enzyme; pH 7, 25 °C; 0.1 to 5 mM ABTS; H2O2 not stated for the kinetic assay

SMILES: CCn1c(=NN=c2sc3cc(S(=O)(=O)O)ccc3n2CC)sc2cc(S(=O)(=O)O)ccc21 [ABTS, 2,2′-azino-bis(3-ehylbenzothiazoline-6-sulfonic acid) diammonium salt]
- Km: 1.54 ± 0.13 mM
